According to PMC11204507, “Mechanistic Insights into the Neurotoxicity of 2,5-Dimethoxyphenethylamines (2C) and Corresponding N-(2-methoxybenzyl)phenethylamine (NBOMe) Drugs” (Journal of Xenobiotics, 2024):
“And” between values parts separate entries of the source, which are not always exact repeats. Identical values can stand only once.

Assays:
serotonergic B65 cells = system: serotonergic B65 cells; set-up: method as in doi:10.1007/s11419-020-00527-w; details: 50 μM, 3 h exposure; cited from earlier work
MAO-A and MAO-B = details: rat model; cited from earlier work
[1] = system: differentiated SH-SY5Y cells; assay: Intracellular calcium levels, Fluo-4 AM probe; format: cell-based, human; details: control 100.0%
Experimental: Calcium is a vital second messenger for almost every cellular process, including cellular signaling, muscle function, neurotransmitter release, membrane function, and apoptosis. Therefore, its levels inside cells are strictly controlled to maintain cellular homeostasis. The intracellular calcium levels were measured using the cell-permeable Fluo-4 AM probe. Inside the cells, Fluo-4 AM is cleaved to its active and fluorescent form—Fluo-4—which has a high affinity for calcium ions (Ca^2⁺). Thus, its fluorescence emission is directly proportional to the concentration of calcium ions in the intracellular environment.
Therefore, the SH-SY5Y cells were seeded onto 96-well plates (25,000 cells/cm^2) following the previously described seeding and differentiation protocol. […] The average value for negative control (EGTA-treated cells) was subtracted from every other condition and then the minimum average value was subtracted from the maximum average value for every other condition. The results are presented as a percentage relative to the control cells (0 µM). A minimum of 5 independent experiments were conducted in triplicate.

[2] = drug at its EC50, immediately after exposure

Structure (SMILES) | mitochondrial production of ROS (serotonergic B65 cells) | deamination by MAO-A and MAO-B (MAO-A and MAO-B) | Ca2+ intracellular levels, % of control cells ([1]; drug at its EC20, immediately after exposure) | Ca2+ intracellular levels, % of control cells [1, 2]
CCSc1cc(OC)c(CCN)cc1OC.Cl [2C-T-2, 2-(4-(ethylthio)-2,5-dimethoxyphenyl)ethan-1-aminium chloride] | increase in the mitochondrial production of ROS | both isoenzymes can catalyze the deamination | – | –
COc1cc(SC(C)C)c(OC)cc1CCN.Cl [2C-T-4, 2-(4-(isopropylthio)-2,5-dimethoxyphenyl)ethan-1-aminium chloride] | no significant alterations | – | – | –
CCCSc1cc(OC)c(CCN)cc1OC.Cl [2C-T-7, 2-(2,5-dimethoxy-4-(propylthio)phenyl)ethan-1-aminium chloride] | increase in the mitochondrial production of ROS | both isoenzymes can catalyze the deamination | 129.9% | 146.5%
CCCSc1cc(OC)c(CCNCc2ccccc2OC)cc1OC.Cl [25T7-NBOMe, 2-(2,5-dimethoxy-4-(propylthio)phenyl)-N-(2-methoxybenzyl)ethan-1-aminium chloride] | – | – | – | > 300% and 320.9%
